Assay results taken from the supplement of paper PMC4862054.

What was measured:
Details in all cases: incubation time: 72 h
MDA-MB-468 = experiment: normalised response (% of control), CellTiter-Glo; higher = more viable cells (100 = DMSO, 0 = benzethonium chloride kill control)
How it was run: (§1)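 Values are normalised signals, each belonging to one concentration of the series. Breast cancer cells (20 µl suspension) were seeded into 384-well plates with compound at 5 concentrations in 10-fold steps over a compound-specific 10,000-fold range and incubated 72 h. Readouts were CellTox Green fluorescence (485/520 nm), then CellTiter-Glo luminescence after 10 min at room temperature, with each plate set to 0.1 % DMSO as 100 and a positive kill control as 0.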

CAL-120 [1] = experiment: as above
How it was run: as §1

MDA-MB-436 [2] = experiment: as above
How it was run: as §1

MDA-MB-231 [3] = experiment: as above
How it was run: as §1

DU-4475 [4] = experiment: as above
How it was run: as §1

HCC1937 [5] = experiment: as above
How it was run: as §1

HCC1599 [6] = experiment: as above
How it was run: as §1

MFM-223 [7] = experiment: as above
How it was run: as §1

HCC1143 [8] = experiment: as above
How it was run: as §1

BT-474 [9] = experiment: as above
How it was run: as §1

MDA-MB-453 [10] = experiment: as above
How it was run: as §1

MCF-10A [11] = experiment: as above
How it was run: as §1

CAL-85-1 [12] = experiment: as above
How it was run: as §1

HDQ-P1 [13] = experiment: as above
How it was run: as §1

SK-BR-3 = experiment: as above
How it was run: as §1

BT-549 [14] = experiment: as above
How it was run: as §1

Hs578T [15] = experiment: as above
How it was run: as §1

CAL-51 [16] = experiment: as above
How it was run: as §1

CAL-148 [17] = experiment: as above
How it was run: as §1

CAL-120 [18] = experiment: normalised response (% of control), CellTox Green; higher = less cell death (100 = DMSO, 0 = benzethonium chloride kill control)
How it was run: as §1

MDA-MB-436 [19] = experiment: as above
How it was run: as §1

MDA-MB-231 [20] = experiment: as above
How it was run: as §1

DU-4475 [21] = experiment: as above
How it was run: as §1

HCC1937 [22] = experiment: as above
How it was run: as §1

HCC1599 [23] = experiment: as above
How it was run: as §1

MFM-223 [24] = experiment: as above
How it was run: as §1

HCC1143 [25] = experiment: as above
How it was run: as §1

BT-474 [26] = experiment: as above
How it was run: as §1

MDA-MB-453 [27] = experiment: as above
How it was run: as §1

MCF-10A [28] = experiment: as above
How it was run: as §1

CAL-85-1 [29] = experiment: as above
How it was run: as §1

HDQ-P1 [30] = experiment: as above
How it was run: as §1

BT-549 [31] = experiment: as above
How it was run: as §1

Hs578T [32] = experiment: as above
How it was run: as §1

CAL-51 [33] = experiment: as above
How it was run: as §1

CAL-148 [34] = experiment: as above
How it was run: as §1

Compound | normalised response (MDA-MB-468) | normalised response (CAL-120 [1]) | normalised response (MDA-MB-436 [2]) | normalised response (MDA-MB-231 [3]) | normalised response (DU-4475 [4]) | normalised response (HCC1937 [5]) | normalised response (HCC1599 [6]) | normalised response (MFM-223 [7]) | normalised response (HCC1143 [8]) | normalised response (BT-474 [9]) | normalised response (MDA-MB-453 [10]) | normalised response (MCF-10A [11]) | normalised response (CAL-85-1 [12]) | normalised response (HDQ-P1 [13]) | normalised response (SK-BR-3) | normalised response (BT-549 [14]) | normalised response (Hs578T [15]) | normalised response (CAL-51 [16]) | normalised response (CAL-148 [17]) | normalised response (CAL-120 [18]) | normalised response (MDA-MB-436 [19]) | normalised response (MDA-MB-231 [20]) | normalised response (DU-4475 [21]) | normalised response (HCC1937 [22]) | normalised response (HCC1599 [23]) | normalised response (MFM-223 [24]) | normalised response (HCC1143 [25]) | normalised response (BT-474 [26]) | normalised response (MDA-MB-453 [27]) | normalised response (MCF-10A [28]) | normalised response (CAL-85-1 [29]) | normalised response (HDQ-P1 [30]) | normalised response (BT-549 [31]) | normalised response (Hs578T [32]) | normalised response (CAL-51 [33]) | normalised response (CAL-148 [34])
CCCCCCCCCCCCCCCCCCOP(=O)([O-])OC1CC[N+](C)(C)CC1 [Perifosine] (250 nM) | 99.7% | 104% | 99.3% | 102% | 96.5% | 101% | 101% | 93.7% | 104% | 102% | 98.2% | 110% | 95.4% | 105% | 97.7% | 97% | 104% | 116% | 97.7% | 106% | 94.7% | 79.8% | 101% | 107% | 97.8% | 59.2% | 118% | 100% | 104% | 102% | 107% | 115% | 88.6% | 97.2% | 110% | 93.9%
CCC(C)(C)C(=O)O[C@H]1C[C@@H](C)C=C2C=C[C@H](C)[C@H](CC[C@@H]3C[C@@H](O)CC(=O)O3)[C@H]21 [Simvastatin] (1000 nM) | – | 96.7% | 98.9% | 81.6% | – | 98.4% | 102% | 98.9% | 96.3% | 75% | 102% | 111% | 96.6% | 92.6% | 106% | 93.6% | 92.9% | 109% | 104% | 102% | 106% | 86.9% | – | 78.2% | 95.7% | 100% | 115% | 94.2% | 106% | 93.2% | 97.2% | 81.5% | 94.5% | 77.5% | 111% | 102%
CC(=O)Nc1ccc(C(=O)Nc2ccccc2N)cc1 [Tacedinaline] (100 nM) | 109% | 99.2% | 102% | 102% | 93.6% | 102% | 126% | 106% | 97.1% | 105% | 102% | 93.7% | 101% | 100% | 95.4% | 106% | 98.4% | 114% | 97.2% | 101% | 110% | 108% | 99.2% | 115% | 97.4% | 101% | 110% | 99.1% | 105% | – | 107% | 76.9% | 117% | 92.4% | 103% | 105%
O=C(CCCCCCC(=O)Nc1ccc([C@H]2O[C@@H](CSc3nc(-c4ccccc4)c(-c4ccccc4)o3)C[C@@H](c3ccc(CO)cc3)O2)cc1)NO [Tubacin] (1 nM) | 91.5% | 96.1% | 82.1% | 97.5% | 100% | 93.3% | 93.5% | 96.8% | 98.9% | 94.2% | 103% | 92.8% | 92.4% | 94.6% | 101% | 100% | 100% | 119% | 97.6% | – | – | – | – | – | – | – | – | – | – | – | – | – | – | – | – | –
O=C(CCCCCCC(=O)Nc1ccc([C@H]2O[C@@H](CSc3nc(-c4ccccc4)c(-c4ccccc4)o3)C[C@@H](c3ccc(CO)cc3)O2)cc1)NO [Tubacin] (10 nM) | 91.2% | 95.8% | 96% | 94.4% | 101% | 93.1% | 95.3% | 97.9% | 103% | 93.5% | 97.2% | 99.1% | 103% | 93% | 95.2% | 101% | 104% | 110% | 100% | – | – | – | – | – | – | – | – | – | – | – | – | – | – | – | – | –
Oc1nc(-c2ccc(C(F)(F)F)cc2)nc2c1CSCC2 [XAV-939] (10 nM) | 92.9% | 93.8% | 99.9% | 95.4% | 104% | 101% | 108% | 98.9% | 99.8% | 102% | 106% | 105% | 98.7% | 97.8% | 117% | 98.6% | 102% | 78.4% | 101% | – | – | – | – | – | – | – | – | – | – | – | – | – | – | – | – | –
